Measured values: patent publication EP0580409A2, “Cosmetic composition containing DOPA derivatives” (UNILEVER PLC, priority 1992, dated 1994)
Where a name gives a salt, the structure may show the parent alone.

What was measured:
[1] = tested on: isolated living human hair follicles; assay: in vitro test of darkening of hair on regrowth with isolated hair follicles in culture; assay type: cell-based
Source text: The isolation of individual hair follicles and their culture will now be described.
The method of testing includes the important step of isolating hair follicles having an undamaged hair bulb from skin, preferably from human skin, by microdissection, but preferably without the enzymic pretreatment advocated by other workers in this field.
The critical step of separating the hair follicle with intact undamaged hair bulb from the subcutaneous fatty tissue in which it is situated accordingly involves severing the hair shaft of the follicle at a point below the epidermis or skin surface, so as to leave the hair bulb intact and undamaged while still bearing a portion of the hair shaft.
(§1) In accordance with the preferred method of culture, isolated hair follicles were maintained in 500µl of Williams E medium, containing the test substance (substituted DOPA) at a concentration of 1mM, at 37°C in an atmosphere of 5% CO₂ + 95% air in individual wells of a 24 multiwell dish (Corning), which permitted detailed observations of the colour and measurements to be made of individual hair follicles.
Hair shaft length measurements and colour changes, i.e. darkening, were made on these follicles, using a Nikon Diaphot inverted binocular photo microscope with eye piece measuring graticules, over seven days in culture.
Groups of eight freshly isolated hair follicles were maintained in a Williams E medium under the conditions stated above. For a control group of follicles the medium contained no test substance. For other groups of follicles the medium contained the test substance at 0.1mM concentration of 1mM concentration, In all cases the growth medium additionally contained L-glutamine (2mM), Penicillin (50 IU/ml), streptomycin (50 ug/ml), insulin (10 ug/ml) and hydrocortisone (10 ng/ml).
(§2) The follicles were photographed at the start of the incubation period and again after incubation for two or four days. The growth and morphology of the follicles was monitored during the culture period.

[2] = tested on: isolated living human hair follicles; assay: observation of inhibition or damage of cultured hair follicles; assay type: cell-based; conditions: follicles cultured with test substance at 0.1mM or 1mM
Experimental: as §1
Groups of eight freshly isolated hair follicles were maintained in a Williams E medium under the conditions stated above. For a control group of follicles the medium contained no test substance. […]
as §2
Melanin formation by these follicles was assessed. […] The supernatant was removed, 200ul samples added to a 96 well plate and the melanin content then determined spectrophotometrically at 540nm. […] The protein content of each sample was also determined by the Folin & Lowry method, with the absorbance being read at 540nm. […] Results were expressed as ug melanin/mg soluble protein.

cultured follicles = assay: melanin formation by cultured hair follicles, spectrophotometric at 540nm; assay type: cell-based, human; conditions: 12 cultured follicles per assay; control 1.11
Experimental: Melanin formation by these follicles was assessed. The procedure was based on that of Gardon and Gilchrest, 1989. For each assay 12 cultured follicles were placed in 500ul of 1M NaOH and incubated overnight at 4°C. The follicles were then homogenised and centrifuged at 14,000 rpm for 2 min. The supernatant was removed, 200ul samples added to a 96 well plate and the melanin content then determined spectrophotometrically at 540nm. A standard curve was also prepared from synthetic melanin dissolved in 1M NaOH. The protein content of each sample was also determined by the Folin & Lowry method, with the absorbance being read at 540nm. […] Results were expressed as ug melanin/mg soluble protein.

[3] = 1mM test substance in Williams E medium, 96 hrs
[4] = 0.1mM test substance in Williams E medium, after 48 hrs

Row | Compound | DARKENING OBSERVED [1, 3] | DARKENING OBSERVED [1, 4] | inhibit or damage the follicles [2] | µg Melanin/mg soluble protein (cultured follicles)
1 | COC(=O)[C@@H](N)Cc1ccc(OC(C)=O)c(OC(C)=O)c1 [methyl-3,4-diacetyl-L-DOPA hydrochloride] | YES (96 hrs) |  |  | 
2 | NC(C(=O)O)C(O)c1ccc(O)c(O)c1 (centres unmarked) [Dihydroxyphenylserine, 3,4-dihydroxyphenylserine] |  | YES (after 48 hrs) | did not appear to inhibit or damage the follicles | 6.31 µg Melanin/mg soluble protein
3 | CC(=O)Oc1ccc(C[C@H](N)C(=O)O)cc1OC(C)=O [3,4-diacetyl-L-DOPA hydrochloride] | YES (96 hrs) |  |  | 
4 | CC(N)(Cc1ccc(O)c(O)c1)C(=O)O (centres unmarked) [2-methyl-3-(3,4-dihydroxyphenyl)alanine, 2-methyl-3-(3,4-dihydroxyphenylalanine)] |  | YES (after 48 hrs) | did not appear to inhibit or damage the follicles | 8.36 µg Melanin/mg soluble protein
